The subject of experiment [1] is HIV-1 (HIV-1 RF, HIV-1 NL4-3) in CEM-SS / MT-2 cells. As to the kind of experiment: Cytopathic effect (CPE) inhibition assay (XTT/MTT dye reduction). It is filed as cell-based. A digest of the protocol:
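CEM-SS or MT-2 cells were infected with HIV-1 RF or NL4-3 (moi 0.025–0.819) and plated at 2×10^4 cells/well with half-log compound dilutions for 6 days. Viability was read by XTT formazan at 450 nm after 4 h. EC50 restores formazan to 50% of uninfected untreated cells, CC50 halves it in uninfected cells, and TI = CC50/EC50.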
(In general: Cytopathic effects are the visible damage that an infection or toxin causes in cultured cells.)

The target in experiment [2] is T1, HIV-1 protease (Q7S mutant form) (Human immunodeficiency virus type 1 group M subtype B, UniProt P04585, Q495S).
T1 construct: made in house
As to the kind of experiment: HIV-1 Protease RET assay. It is filed as biochemical. An outline of the steps:
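Q7S HIV-1 protease, refolded from urea, 2 nM active dimer with 5 μM EDANS/DABCYL peptide cleaved at Tyr-Pro; fluorescence 340/490 nm. 12 min at 37 °C in 0.1M sodium acetate pH 4.8, 1M NaCl, 10% DMSO. Ki from Morrison tight-binding fit.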

The mark [3] stands for this setting: Human immunodeficiency virus 1, NL43, read-out: Ave CPE EC50.
The mark [4] stands for this setting: Ave. Ki (nM), RET assay, Q7S enzyme, Morrison tight binding fit.

Where two headings read alike, the source gives them in different places.

As a reminder, the EC50 is the concentration needed to bring the measured effect to its halfway point. A word on the Ki: it is the equilibrium dissociation constant of an inhibitor or competing ligand from its target.

As to `Cc1ccccc1C(=O)N[C@@H](Cc1ccccc1)[C@H](O)C(=O)N1CSC(C)(C)[C@H]1C(=O)N[C@H]1CCc2ccccc21` [Example B78, (R)-3-{(2S,3S)-2-Hydroxy-4-phenyl-3-[(1-o-tolyl-methanoyl)-amino]-butanoyl}-5,5-dimethyl-thiazolidine-4-carboxylic acid (S)-indan-1-ylamide], the EC50 in experiment [1] (setting [3]) was found to be 557 nM. Also, in experiment [2] (setting [4]), the Ki came out at 0.18 nM.

`Cc1ccccc1C(=O)N[C@@H](Cc1ccccc1)[C@H](O)C(=O)N1CSC(C)(C)[C@H]1C(=O)NCc1cccs1` [Example B79, (R)-3-{(2S,3S)-2-Hydroxy-4phenyl-3-[(1-o-tolyl-methanoyl)-amino]-butanoyl}-5,5-dimethyl-thiazolidine-4-carboxylic acid (thiophen-2-ylmethyl)-amide]: the EC50 in experiment [1] (setting [3]) was 530 nM. In experiment [2] (setting [4]), this compound came in with a Ki of 0.78 nM.

With `Cc1c(F)cccc1C(=O)N[C@@H](Cc1ccccc1)[C@H](O)C(=O)N1CSC(C)(C)[C@H]1C(=O)N[C@@H]1C=CCCC1` [Example B81, (R)-3-((2S,3S)-3-{[1-(3-Fluoro-2-methyl-phenyl)-methanoyl]-amino}-2-hydroxy-4-phenyl-butanoyl)-5,5-dimethyl-thiazolidine-4-carboxylic acid (S)-cyclohex-2-enylamide], the EC50 in experiment [1] (setting [3]) stood at 878 nM. Affinity in experiment [2] (setting [4]) was put at a Ki of 0.35 nM.

`Cc1c(F)cccc1C(=O)N[C@@H](Cc1ccccc1)[C@H](O)C(=O)N1CSC(C)(C)[C@H]1C(=O)N[C@H]1CCc2ccccc21` [Example B82, (R)-3-((2S,3S)-3-{[1-(3-Fluoro-2-methyl-phenyl)-methanoyl]-amino}-2-hydroxy-4-phenyl-butanoyl)-5,5-dimethyl-thiazolidine-4-carboxylic acid (S)-indan-1-ylamide]: the EC50 in experiment [1] (setting [3]) was 1290 nM. In experiment [2] (setting [4]), this compound yielded a Ki of 0.19 nM.

Take `Cc1ccccc1CNC(=O)[C@H]1N(C(=O)[C@@H](O)[C@H](Cc2ccccc2)NC(=O)CCCO)CSC1(C)C` [Example B85]: the EC50 in experiment [1] (setting [3]) worked out at 363 nM. Further, the Ki in experiment [2] (setting [4]) amounted to 1.3 nM.

As for `Cc1c(O)cccc1C(=O)N[C@@H](Cc1ccccc1)[C@H](O)C(=O)N1CC(F)(F)C[C@H]1C(=O)N[C@H]1CCCc2ccccc21` [Example C3, (S)-4,4-Difluoro-1-((2S,3S)-2-hydroxy-3-{[1-(3-hydroxy-2-methyl-phenyl)-methanoyl]-amino}-4-phenyl-butanoyl)-pyrrolidine-2-carboxylic acid (1,2,3,4-tetrahydro-naphthalen-1-yl)-amide], the EC50 in experiment [1] (setting [3]) came to 486 nM. Also, the Ki in experiment [2] (setting [4]) amounted to 0.16 nM.

Take `CCCNC(=O)[C@@H]1CC(F)(F)CN1C(=O)[C@@H](O)[C@H](Cc1ccccc1)NC(=O)c1cccc(O)c1C` [Example C7, 4,4-Difluoro-1-[2-hydroxy-3-(3-hydroxy-2-methyl-benzoylamino)-4-phenyl-butyryl]-pyrrolidine-2-carboxylic acid propylamide]: in experiment [1] (setting [3]), the EC50 was found to be 347 nM. Also, the Ki in experiment [2] (setting [4]) is 3 nM.

Turning to `Cc1c(O)cccc1C(=O)N[C@@H](Cc1ccccc1)[C@H](O)C(=O)N1CC(F)(F)C[C@H]1C(=O)NCc1ccccc1Cl` [Example C10, 4,4-Difluoro-1-[2-hydroxy-3-(3-hydroxy-2-methyl-benzoylamino)-4-phenyl-butyryl]-pyrrolidine-2-carboxylic acid 2-chloro-benzylamide], in experiment [1] (setting [3]), the EC50 was determined as 1290 nM. Besides, the Ki in experiment [2] (setting [4]) is 1.5 nM.

Turning to `Cc1c(O)cccc1C(=O)N[C@@H](Cc1ccccc1)[C@H](O)C(=O)N1CC(F)(F)C[C@H]1C(=O)NCc1ccc2c(c1)OCO2` [Example C11, 4,4-Difluoro-1-[2-hydroxy-3-(3-hydroxy-2-methyl-benzoylamino)-4-phenyl-butyryl]-pyrrolidine-2-carboxylic acid (benzo[1,3]dioxol-5-ylmethyl)-amide], the EC50 in experiment [1] (setting [3]) came to 1310 nM. For the same compound, the Ki in experiment [2] (setting [4]) was determined as 2.8 nM.

As for `COc1cccc(CNC(=O)[C@@H]2CC(F)(F)CN2C(=O)[C@@H](O)[C@H](Cc2ccccc2)NC(=O)c2cccc(O)c2C)c1` [Example C12, (S)-4,4-Difluoro-1-[(2S,3S)-2-hydroxy-3-(3-hydroxy-2-methyl-benzoylamino)-4-phenyl-butyryl]-pyrrolidine-2-carboxylic acid 3-methoxy-benzylamide], in experiment [1] (setting [3]), the EC50 came out at 1770 nM. Also, in experiment [2] (setting [4]), the affinity corresponds to a Ki of 2.7 nM.

Take `COc1ccc(CNC(=O)[C@@H]2CC(F)(F)CN2C(=O)[C@@H](O)[C@H](Cc2ccccc2)NC(=O)c2cccc(O)c2C)cc1` [Example C13, (S)-4,4-Difluoro-1-[(2S,3S)-2-hydroxy-3-(3-hydroxy-2-methyl-benzoylamino)-4-phenyl-butyryl]-pyrrolidine-2-carboxylic acid 4-methoxy-benzylamide]: in experiment [1] (setting [3]), the EC50 came out at 1180 nM. The compound also had a Ki in experiment [2] (setting [4]) of 0.59 nM.

As to `Cc1c(O)cccc1C(=O)N[C@@H](Cc1ccccc1)[C@H](O)C(=O)N1CC(F)(F)C(C)(C)[C@H]1C(=O)NCc1ccco1` [Example C20, (S)-4,4-Difluoro-1-[(2S,3S)-2-hydroxy-3-(3-hydroxy-2-methyl-benzoylamino)-4-phenyl-butyryl]-3,3-dimethyl-pyrrolidine-2-carboxylic acid (furan-2-ylmethyl)-amide], the EC50 in experiment [1] (setting [3]) was 35 nM. In experiment [2] (setting [4]), this compound registered a Ki of less than 0.1 nM.

As for `Cc1ccccc1CNC(=O)[C@@H]1CC(F)(F)CN1C(=O)[C@@H](O)[C@H](Cc1ccccc1)NC(=O)O[C@H]1CCOC1` [Example C41, {(1S,2S)-1-Benzyl-3-[(S)-4,4-difluoro-2-(2-methyl-benzylcarbamoyl)-pyrrolidin-1-yl]-2-hydroxy-3-oxo-propyl}-carbamic acid (S)-(tetrahydro-furan-3-yl)ester], in experiment [1] (setting [3]), the EC50 worked out at 1430 nM. This compound also displayed a Ki in experiment [2] (setting [4]) of 1.3 nM.

In the case of `Cc1ccccc1CNC(=O)[C@@H]1CC(F)(F)CN1C(=O)[C@@H](O)[C@H](Cc1ccccc1)NC(=O)c1ccc(C)c(O)c1C` [Example C42, (S)-4,4-Difluoro-1-((2S,3S)-2-hydroxy-3-{[1-(3-hydroxy-2,4-dimethyl-phenyl)-methanoyl]-amino}-4-phenyl-butanoyl)-pyrrolidine-2-carboxylic acid 2-methyl-benzylamide], the EC50 in experiment [1] (setting [3]) amounted to 3200 nM. This compound displayed a Ki in experiment [2] (setting [4]) of 4 nM.

`CCCNC(=O)[C@@H]1CC(F)(F)CN1C(=O)[C@@H](O)[C@H](Cc1ccccc1)NC(=O)COc1c(C)cccc1C` [Example C45, 1-{3-[2-(2,6-Dimethyl-phenoxy)-acetylamino]-2-hydroxy-4-phenyl-butyryl}-4,4-difluoro-pyrrolidine-2-carboxylic acid propylamide]: the 50% effective concentration (EC50) in experiment [1] (setting [3]) was determined as 1580 nM. The compound also yielded a Ki in experiment [2] (setting [4]) of 3.6 nM.

Turning to `Cc1ccccc1CNC(=O)[C@H]1N(C(=O)[C@@H](O)[C@H](Cc2ccccc2)NC(=O)COc2c(C)cccc2C)CC(F)(F)C1(C)C` [Example C46, (S)-1-{(2S,3S)-3-[2-(2,6-Dimethyl-phenoxy)-acetylamino]-2-hydroxy-4-phenyl-butyryl}-4,4-difluoro-3,3-dimethyl-pyrrolidine-2-carboxylic acid 2-methyl-benzylamide], the EC50 in experiment [1] (setting [3]) came out at 407 nM. In experiment [2] (setting [4]), this compound had a Ki of less than 0.1 nM.

On to `Cc1ccccc1CNC(=O)[C@H]1N(C(=O)[C@@H](O)[C@H](Cc2ccccc2)NC(=O)O[C@H]2CCOC2)COC1(C)C` [Example C47, {(1S,2S)-1-Benzyl-3-[(S)-5,5-dimethyl-4-(2-methyl-benzylcarbamoyl)-oxazolidin-3-yl]-2-hydroxy-3-oxo-propyl}-carbamic acid (S)-(tetrahydro-furan-3-yl)ester], for which, in experiment [1] (setting [3]), the EC50 was 1380 nM. Moreover, the Ki in experiment [2] (setting [4]) amounted to 1.4 nM.

Turning to `Cc1ccccc1CNC(=O)[C@H]1N(C(=O)[C@@H](O)[C@H](Cc2ccccc2)NC(=O)c2cccc(O)c2C)CC(=O)C1(C)C` [Example C48, 1-[2-Hydroxy-3-(3-hydroxy-2-methyl-benzoylamino)-4-phenyl-butyryl]-3,3-dimethyl-4-oxo-pyrrolidine-2-carboxylic acid 2-methyl-benzylamide], the concentration giving a half-maximal response (EC50) in experiment [1] (setting [3]) came to 128 nM. This compound also showed a Ki in experiment [2] (setting [4]) of less than 0.1 nM.

In the case of `Cc1ccccc1CNC(=O)[C@@H]1C2CCC(C2)N1C(=O)[C@@H](O)[C@H](Cc1ccccc1)NC(=O)c1cccc(O)c1C` (some centres unmarked) [Example C50, 2-(2-Hydroxy-3-{[1-(-hydroxy-2-methyl-phenyl)-methanoyl]-amino}-4-phenyl-butanoyl)-2-aza-bicyclo[2.2.1]-heptane-3-carboxylic acid-2-methyl-benzylamide], in experiment [1] (setting [3]), the EC50 was 997 nM. The compound further had a Ki in experiment [2] (setting [4]) of 7.9 nM.

Regarding `CCCNC(=O)[C@H]1N(C(=O)[C@@H](O)[C@H](Cc2ccccc2)NC(=O)c2cc(C)cc(O)c2C)CC(F)(F)C1(C)C` [Example D4, (S)-4,4-Difluoro-1-[(2S,3S)-2-hydroxy-3-(3-hydroxy-2,5-dimethyl-benzoylamino)-4-phenyl-butyryl]-3,3-dimethyl-pyrrolidine-2-carboxylic acid propylamide], in experiment [1] (setting [3]), the EC50 turned out to be 9 nM. Moreover, in experiment [2] (setting [4]), the Ki was less than 0.1 nM.

`Cc1cc(O)c(C)c(C(=O)N[C@@H](Cc2ccccc2)[C@H](O)C(=O)N2CC(F)(F)C(C)(C)[C@H]2C(=O)NCC(C)C)c1` [Example D5, (S)-4,4-Difluoro-1-[(2S,3S)-2-hydroxy-3-(3-hydroxy-2,5-dimethyl-benzoylamino)-4-phenyl-butyryl]-3,3-dimethyl-pyrrolidine-2-carboxylic acid isobutyl-amide]: the EC50 in experiment [1] (setting [3]) is 11 nM. The compound further had a Ki in experiment [2] (setting [4]) of less than 0.1 nM.

For `Cc1ccccc1CNC(=O)C1N(C(=O)[C@@H](O)[C@H](CSc2ccccc2)NC(=O)c2cccc(O)c2C)CSC1(C)C` (some centres unmarked) [drawing 934], the half-maximal effective concentration (EC50) in experiment [1] (unit inferred, read-out: EC50) was 27 nM. This compound showed a Ki in experiment [2] (Ki, unit inferred) of no more than 0.1 nM.
